From patent US9814796B2, “Methods for sterilization and/or disinfection” (P[…] OF NEVADA, LLC, priority 2015, dated 2017)

Test system: Bacillus atrophaeus ATCC 9372 spores
Assay: Spore inactivation by 3.25 wt. % performic acid at various times and temperatures
Assay type: cell-based
Conditions: for Colony Forming Units (CFU) / Log Reduction: 3.25 wt. % performic acid
Excerpt: An aqueous solution containing x weight percent of performic acid may be prepared by (1) diluting a commercially available aqueous solution of hydrogen peroxide (e.g., a 30 weight percent aqueous solution or a 50 weight percent aqueous solution) down to a concentration of 2x; (2) diluting a commercially available aqueous solution of formic acid (e.g., a 95 weight percent aqueous solution) down to a concentration of 2x; and (3) combining the diluted solution of hydrogen peroxide and the diluted solution of formic acid in a 1:1 volume, thereby providing performic acid in a concentration of x.
The procedure for performing spore inactivation tests in solution is as follows: Bacillus atrophaeus ATCC 9372 spores in saline were equilibrated in a water bath at the preselected test temperature, as was a formic acid/hydrogen peroxide mixture. At an initial time (T0), a volume of the formic acid/peroxide mixture was added to the spore preparation, such that the pre-chosen test concentration of the sterilization agent was achieved. At preselected times after the addition of the sterilization agent to the spore preparation, aliquots of the spore-treated mixture were transferred into a solution containing an excess of catalase (MP Biomedical) in order to quench the peroxide reaction. This solution was then serially ten-fold diluted and spread-plated onto tryptic soy agar plates that were subsequently incubated at 35° C. for 48 hours and enumerated.
An aqueous solution containing 3.25 wt. % of performic acid was prepared by (1) diluting a 50 wt. % aqueous solution of hydrogen peroxide down to a concentration of 6.5 wt. %; (2) diluting a 95 wt. % aqueous solution of formic acid down to a concentration of 6.5 wt. %; and (3) combining the 6.5 wt. % solution of hydrogen peroxide and the 6.5 wt. % solution of formic acid in a 1:1 volume.

performic acid
Colony Forming Units (CFU) (10° C., 5 seconds): 0 CFU | Log Reduction (10° C., 5 seconds): >7.8 | Colony Forming Units (CFU) (10° C., 10 seconds): 0 CFU | Log Reduction (10° C., 10 seconds): >7.8 | Colony Forming Units (CFU) (10° C., 15 seconds): 0 CFU | Log Reduction (10° C., 15 seconds): >7.8 | Colony Forming Units (CFU) (20° C., 5 seconds): 0 CFU | Log Reduction (20° C., 5 seconds): >8 | Colony Forming Units (CFU) (20° C., 10 seconds): 0 CFU | Log Reduction (20° C., 10 seconds): >8 | Colony Forming Units (CFU) (20° C., 15 seconds): 0 CFU | Log Reduction (20° C., 15 seconds): >8 | effectiveness in killing spores (in words) (room temperature and below (e.g., 5° C. or 10° C.), exposure times as little as 5 seconds): surprisingly and unexpectedly effective
